{"source": "patent US6803233B2", "about": "“Model for Alzheimer's disease and other neurodegenerative diseases” (priority 2000, dated 2004)", "key": {"cathepsin D": {"test_system": "cathepsin D", "test": "Immunoblot of cathepsin D isoforms in cultured mouse hippocampal slices", "format": "cell-based", "conditions": "20 μM ZPAD, 6 days"}, "tau proteins": {"test_system": "tau proteins", "test": "Immunoblot with tau-1 antibody in cultured mouse hippocampal slices", "format": "cell-based", "conditions": "six days of ZPAD; for reduction in native tau proteins (50-55 kDa): mean±s.e.m., n=6", "experimental": "Hippocampal slices were prepared from 10 to 13 day old C57BL/6J (wild-type) and C57BL/6J-ApoE^tm1Unc (ApoE-knockout) mice obtained from the Jackson laboratory, Bar Harbor, Me. Pups were placed under light bromo-chloro-trifluoroethane anesthesia (Sigma, St. Louis, Mo.), and killed by decapitation. After removing the brains, the hippocampus was dissected and subsequently placed on a McIlwain tissue chopper where slices (400 μm thick) were obtained and placed in a solution of cutting medium consisting of Minimum Essential Medium (MEM) with Earle's salts (Gibco, Grand Island, N.Y.), 25 mM HEPES buffer, 10 mM Tris base, 10 mM glucose, and 3 mM MgCl2, pH 7.20. Hippocampal slices were then placed onto the membranes of Millicell-CM culture inserts (Millipore Corp., Bedford, Mass.) in 6 well culture cluster plates and 1 ml of media per well using the methods described by Stoppini et al., J. Neurosci. Methods 37(2):173-82 (1991). The culture medium was described previously by Bednarski et al., J. Neurosci. 17(11):4006-21 (1997). The cultures were incubated in a 37° C. atmosphere containing 5% CO2 and the culture medium was replaced every other day until the initiation of experiments. Each culture cluster plate contained hippocampal slices from either two wild-type or two apoE-knockout mice and individual wells were used for matched control and experimental treatment groups.\nAfter maintaining the slices with normal culture medium (Bednarski et al., J. Neurosci. 17(11):4006-21 (1997)) in vitro for 12-14 days, slices were incubated with culture medium containing either 20 μM N-CBZ-L-phenylalanyl-L-alanine-diazomethyl-ketone (ZPAD; BACHEM Bioscience, Inc., Torrance, Calif.), an inhibitor of cathepsins B and L (Shaw & Dean, Biochem. J. 186:385-390 (1980); Green & Shaw, J Biol Chem. 256:1923-1928 (1981); Richardson et al., J. Cell Biol. 107: 2097-2107 (1988)) or vehicle (dimethylsulfoxide; DMSO, 0.01%-0.04%) for six days. This treatment media was exchanged every other day.\nControl and ZPAD-treated slices were collected in ice-cold 10 mM Tris-HCl harvest buffer consisting of 0.32 M sucrose, 2 mM EDTA, 2 mM EGTA, and 0.1 mM leupeptin, pH 7.4, and centrifuged at 12,000×g for 5 minutes at 4° C. At this point, the pellets were resuspended in lysis buffer (8 mM HEPES, 1 mM EDTA, 0.3 mM EGTA, pH 8.0) and sonicated. The Bradford analysis was performed (Bradford, M, Anal. Biochem 72:248-254 (1976)) and 100-120 μg of protein from each sample was denatured by boiling for 5 min with 2.5% (wt/vol) sodium dodecyl sulfate (SDS) and 3% 2-mercaptoethanol and then subjected to SDS-PAGE on 10% linear gradient gels. See Laemmli et al., J. Mol. Biol. 47:69-85 (1970). […] Relative optical densities and areas of immunobands were quantified using the NIH image analysis system."}, "basophilic granules": {"test_system": "basophilic granules", "test": "Semithin section histology (toluidine blue) of cultured mouse hippocampal slices", "format": "cell-based", "conditions": "20 μM ZPAD, six days; wild-type and apoE-deficient slices", "experimental": "To prepare semithin sections, control and treated slices from both wild-type and apoE-deficient mice were fixed in a solution of 0.1M phosphate buffer (“PB”; pH 7.2), containing 1.5% paraformaldehyde and 1.5% glutaraldehyde. After a period of two to three hours, the solution was removed and the slices were rinsed three times in phosphate buffered saline (“PBS”; 50 mM phosphate buffer, 0.9% NaCl, pH 7.3). At this time, slices were postfixed in 2% osmium tetroxide in PB for one hour, dehydrated in a series of alcohols and embedded in Polybed-812. Semithin (1 μm thick) sections were cut on a Sorvall Porter-Blum ultramicrotome and stained with a solution of 0.1% toluidine blue. Digitized images were imported using a Sony DKC-5000 camera attached to a Zeiss microscope and processed using Adobe Photoshop™."}, "tangle-like structures": {"test_system": "tangle-like structures", "test": "AT8 immunostaining of cultured rat hippocampal slices", "format": "cell-based", "conditions": "rat hippocampal slices; agent applied for 6 days", "quoted_text": "Cultured slices were stained with anti-phosphorylated tau antibody AT8.\n(§1) Cultures of hippocampal slices were prepared from 10-12 days old rats.\nCultured rat hippocampal slices of 12 days in vitro were treated with 20 μM pravastatin for 6 days and processed from immunohistological studies with the monoclonal antibody AT8. The subiculum, CA1 field, and CA3 field of the hippocampus were examined by photomicroscopy."}, "tau": {"test_system": "tau", "test": "Immunoblot of tau (tau-1, AT8) in cultured rat hippocampal slices", "format": "cell-based", "conditions": "rat hippocampal slices; 6 days", "quoted_text": "Immunoblotting was carried out by using anti-non phosphorylated tau antibody, tau-1 or anti-phosphorylated tau antibody, AT8.\nas §1"}, "reactive microglia": {"test_system": "reactive microglia", "test": "ED-1 immunocytochemistry of cultured brain explants", "format": "cell-based, rat", "conditions": "ZPAD 20 μM, mevastatin 20 μM or PD98059 50 μM alone, 6 days", "experimental": "Immunocytochemical studies using the monoclonal antibody ED-1 that recognizes reactive microglia were used at 1:1000 dilution following standard immunohistochemical procedures. Microglial activation was determined by measuring cell numbers, optical density, and size of cell bodies using the program NIH Image. Brain tissue was cultured for 12 days and treated with ZPAD (20 μM) in the presence or absence of PD98059 (50 μM) for 6 days (FIG. 18). Cultured explants were then sliced and stained by using monoclonal antibody ED-1 which recognizes reactive microglia, a classical marker of inflammation. […] Cultured brain explants were then sliced and stained by using monoclonal antibody ED-1, a classical marker for reactive microglia and macrophages."}, "caspase 3": {"test_system": "caspase 3", "test": "ELISA assay of caspase 3 activity in cultured hippocampal slices", "format": "cell-based", "conditions": "slices cultured 12 days, treated 6 days", "experimental": "Hippocampal slices were cultured for 12 days and incubated with vehicle alone, ZPAD, or chloroquine (CQN; a lysosomal inhibitor) for 6 days (FIG. 28). Cultures were then homogenized, and subjected to an ELISA assay to detect the activity of caspase 3, an apoptotic protease."}, "[1]": {"conditions": "apoE-knockout mouse slices, relative to yoked knockout controls"}, "[2]": {"conditions": "wild-type mouse slices, relative to controls, mean±s.e.m."}}, "note": "“And” between values parts separate entries of the source, which are not always exact repeats. Equal values may be shown once. “Also recorded” adds a separate entry of the source."}
{"substance": "N-CBZ-L-phenylalanyl-L-alanine-diazomethyl-ketone [ZPAD]", "values": [{"measurement": "increase in cathepsin D heavy chain (~38 kDa)", "setting": "cathepsin D; apoE-knockout mouse slices, relative to control values", "value": "84±26% and 84+26%"}, {"measurement": "increase in cathepsin D proenzyme (~55 kDa)", "setting": "cathepsin D; [1]", "value": "145±43% and 145+43%"}, {"measurement": "increase in cathepsin D single chain (~50 kDa)", "setting": "cathepsin D; [1]", "value": "150±29% and 150+29%"}, {"measurement": "increase in cathepsin D heavy chain (~38 kDa)", "setting": "cathepsin D; [2]", "value": "3.0±5.7% and 3.0+5.7%"}, {"measurement": "increase in cathepsin D single chain form (~50 kDa)", "setting": "cathepsin D; [2]", "value": "42±22% and 42+22%"}, {"measurement": "increase in cathepsin D proenzyme (~55 kDa)", "setting": "cathepsin D; wild-type mouse slices, relative to yoked controls, mean±s.e.m., n=9", "value": "65±29% and 65+29%"}, {"measurement": "increase in levels of the 15-35 kDa tau fragments", "setting": "tau proteins; apoE-knockout mouse slices", "value": "277±20", "unit": "%"}, {"measurement": "reduction in native tau proteins (50-55 kDa)", "setting": "tau proteins; apoE-knockout mouse slices", "value": "35±1.1", "unit": "%"}, {"measurement": "increase in levels of the 15-35 kDa tau fragments", "setting": "tau proteins; wild-type mouse slices", "value": "240±19", "unit": "%"}, {"measurement": "reduction in native tau proteins (50-55 kDa)", "setting": "tau proteins; wild-type mouse slices", "value": "22±2.6", "unit": "%"}, {"measurement": "number of basophilic granules (lysosomes)", "setting": "basophilic granules", "value": "increase in the number of basophilic granules"}, {"measurement": "induction of AT8-immunoreactive tangle-like structures", "setting": "tangle-like structures", "value": "only a small number; also recorded: moderately increased; also recorded: induced numerous tangles"}, {"measurement": "native tau proteins (tau-1 blot)", "setting": "tau", "value": "decreases in the native tau proteins; also recorded: induced a truncation of native tau proteins"}, {"measurement": "tau fragments (tau-1 blot)", "setting": "tau", "value": "increases in fragments at apparent molecular weights of 40, 33, and 29 kDa; also recorded: generation of tau fragments"}, {"measurement": "reaction of microglia (ED-1 staining)", "setting": "reactive microglia", "value": "triggered significant reaction of microglia"}, {"measurement": "activity of caspase 3", "setting": "caspase 3", "value": "marked increase"}]}
